Experimental data as given in US20120014979A1, “USE OF BCL6 INHIBITORS FOR TREATING AUTOIMMUNE DISEASES” (priority 2010, published 2012).

System: individual with symptoms indicative of lupus
Experiment: Treatment of Lupus Erythematosus in an individual (Example 2)
Assay type: in vivo, human
Protocol: The individual is a person with symptoms including chronic fever, malaise, joint pains, myalgias, fatigue, indicative of lupus. The individual has previously been treated, largely unsuccessfully, with cyclophosphamides, corticosteroids and immunosuppressants.
The individual is treated for 1 to 60 days sequentially with BPI-1 administered at a dose of 4 mg/kg daily.

`O=C(O)CC(C(=O)O)N1C(=O)/C(=C2/C(=O)Nc3ccc(Br)cc32)SC1=S` (centres unmarked) [79-6] was tested, and the “results in equivalent or comparable trials with individuals exhibiting similar symptomatology” value (BCL6 inhibitors other than BPI, compared with BPI-1 treatment of lupus) was “Equivalent results are obtainable”.
“NH2-G(RRRQRRKKR)GG(RGIEHAAR)GG(DIM)G(EW)G(NEIF)G(AIA)G(FL)G-OH [BPI-1]” was tested, and the “amelioration of lupus (severity and frequency of flares and their symptoms)” value (person, 4 mg/kg daily, 1 to 60 days sequentially) was “long-lasting amelioration of lupus with a reduction in the severity and frequency of flares and their symptoms”.
